Measurements from patent publication US20060281719A1, “Oestrogen-17-sulphamates as inhibitors of steroid sulphatase” (priority 2000, published 2006).
“And” between values parts separate entries of the source, which are not always exact repeats. Identical values can stand only once. Like-named read-outs stand apart in the source and are kept apart here.

Experiments:
Plate assay % inhibition = format: cell-based; details: -ve % means stimulation
[1] = target: T1, oestrone sulphatase (E1-STS) (Homo sapiens, UniProt P08842); test: Inhibition of steroid sulphatase activity in placental microsomes; format: biochemical; design: from tissue; host or cells: human term placenta (microsomal preparation); details: for inhibition at 0.01 µM / inhibition at 1 µM: read-out: Placental Microcsomes % inhibition
T1 sequence (P08842 22-583): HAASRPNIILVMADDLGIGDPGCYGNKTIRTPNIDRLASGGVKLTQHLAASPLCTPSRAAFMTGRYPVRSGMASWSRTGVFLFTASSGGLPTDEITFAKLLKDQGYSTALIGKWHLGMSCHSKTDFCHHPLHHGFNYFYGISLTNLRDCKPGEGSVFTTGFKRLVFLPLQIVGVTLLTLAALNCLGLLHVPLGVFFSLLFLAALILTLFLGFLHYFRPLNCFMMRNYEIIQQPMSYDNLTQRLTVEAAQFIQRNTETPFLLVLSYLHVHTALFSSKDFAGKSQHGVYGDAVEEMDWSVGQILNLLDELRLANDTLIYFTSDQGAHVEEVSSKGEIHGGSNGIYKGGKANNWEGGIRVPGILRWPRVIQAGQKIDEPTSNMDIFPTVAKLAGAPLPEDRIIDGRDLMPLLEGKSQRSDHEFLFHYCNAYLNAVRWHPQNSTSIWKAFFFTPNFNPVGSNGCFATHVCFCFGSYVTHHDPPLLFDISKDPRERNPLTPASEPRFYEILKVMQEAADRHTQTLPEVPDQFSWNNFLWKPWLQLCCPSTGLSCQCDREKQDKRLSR
Description: Inhibition of Steroid Sulphatase Activity in Placental Microsomes
Sulphatase-positive human placenta from normal term pregnancies are thoroughly minced with scissors and washed once with cold phosphate buffer (pH 7.4, 50 mM) then re-suspended in cold phosphate buffer (5 ml/g tissue). Homogenisation is accomplished with an Ultra-Turrax homogeniser, using three 10 second bursts separated by 2 minute cooling periods in ice. Nuclei and cell debris are removed by centrifuging (4° C.) at 2000 g for 30 minutes and portions (2 ml) of the supernatant are stored at 20° C.
Incubations (1 ml) are carried out using a protein concentration of 100 mg/ml, substrate concentration of 20 mM [6,7-3H]oestrone-3-sulphate (specific activity 60 Ci/mmol from New England Nuclear, Boston, Mass., U.S.A.) and an incubation time of 20 minutes at 37° C. If necessary eight concentrations of compounds are employed: 0 (i.e. control); 0.05 mM; 0.1 mM; 0.2 mM; 0.4 mM; 0.6 mM; 0.8 mM; 1.0 mM. After incubation each sample is cooled and the medium (1 ml) was pipetted into separate tubes containing [14C]oestrone (7×10^3 dpm) (specific activity 97 Ci/mmol from Amersham International Radiochemical Centre, Amersham, U.K.). The mixture is shaken thoroughly for 30 seconds with toluene (5 ml). […] A portion (2 ml) of the organic phase was removed, evaporated and the 3H and 14C content of the residue determined by scintillation spectrometry. The mass of oestrone-3-sulphate hydrolysed is calculated from the 3H counts obtained (corrected for the volumes of the medium and organic phase used, and for recovery of [14C]oestrone added) and the specific activity of the substrate.

tubulin = test: Colchicine Displacement Assay (tubulin binding); design: concentration or dose not given beside the values
[2] = target: T1, oestrone sulphatase (E1-STS); test: Inhibition of steroid sulphatase (E1-STS) activity in intact MCF-7 breast cancer cells; format: cell-based
[3] = tested on: MCF-7 breast cancer cells; test: Growth inhibition of MCF-7 breast cancer cells; format: cell-based, human

SMILES: CN(C)S(=O)(=O)O[C@@H]1CCC2C3CCc4cc(OCc5ccccc5)ccc4C3CC[C@@]21C (some centres unmarked)
- melting point: 82 to 86 °C (dec.)

SMILES: CC1=C2CCC3c4ccc(OS(N)(=O)=O)cc4CCC3C2CC1 (centres unmarked)
- melting point: 172 to 176 °C

SMILES: C[C@]12CCC3c4ccc(OCc5ccccc5)cc4CCC3C1CC[C@@H]2OS(N)(=O)=O (some centres unmarked)
- melting point: 108 to 109 °C

SMILES: C[C@]12CCC3c4ccc(OCc5ccccc5)cc4CCC3C1CC[C@H]2OS(N)(=O)=O (some centres unmarked)
- melting point: 91 to 93 °C

SMILES: C[C@]12CCC3c4ccc(OCc5ccccc5)cc4CCC3C1CC[C@H]2OS(=O)(=O)N(Cc1ccccc1)Cc1ccccc1 (some centres unmarked)
- melting point: 115 to 116 °C

SMILES: CN(C)S(=O)(=O)O[C@H]1CCC2C3CCc4cc(OCc5ccccc5)ccc4C3CC[C@@]21C (some centres unmarked)
- melting point: 117 to 121 °C

SMILES: CC1=C2CCC3c4ccc(OS(N)(=O)=O)cc4CCC3C2CC1 (centres unmarked) [BLE00086]
- inhibition at 0.1 µM (Plate assay % inhibition; 0.1 μM): 8%
- inhibition at 1 µM (Plate assay % inhibition; 1 μM): 3%
- inhibition at 10 µM (Plate assay % inhibition): 14%

SMILES: COc1cc2c(cc1O)CCC1C2CC[C@@]2(C)C1CC[C@@]2(O)Cc1ccc(C(C)(C)C)cc1 (some centres unmarked) [BLE01008]
- Plate assay % inhibition (Plate assay % inhibition; 0.1 μM): −12%
- Plate assay % inhibition (Plate assay % inhibition; 1 μM): −15%

SMILES: COc1cc2c(cc1O)CCC1C2CC[C@@]2(C)C1CC[C@@]2(O)Cc1ccccc1 (some centres unmarked) [BLE01014]
- Plate assay % inhibition (Plate assay % inhibition; 0.1 μM): −14%
- Plate assay % inhibition (Plate assay % inhibition; 1 μM): −14%

SMILES: COc1cc2c(cc1OS(N)(=O)=O)CCC1C2CCC2(C)C1CCC2(O)Cc1ccc(C(C)(C)C)cc1 (centres unmarked) [BLE01016]
- inhibition at 0.1 µM (Plate assay % inhibition; 0.1 μM): -14%
- inhibition at 1 µM (Plate assay % inhibition; 1 μM): -10%
- inhibition at 10 µM (Plate assay % inhibition): -3%

SMILES: COc1cc2c(cc1OS(N)(=O)=O)CCC1C2CCC2(C)C1CCC2(O)Cc1ccccc1 (centres unmarked) [BLE01018]
- inhibition at 0.1 µM (Plate assay % inhibition; 0.1 μM): -19%
- inhibition at 1 µM (Plate assay % inhibition; 1 μM): -12%

SMILES: CC12CCC3c4ccc(OS(N)(=O)=O)cc4CCC3C1CCC2OS(N)(=O)=O (centres unmarked) [BLE99031B]
- inhibition at 0.1 µM (Plate assay % inhibition; 0.1 μM): 7%
- inhibition at 1 µM (Plate assay % inhibition; 1 μM): 12%
- inhibition at 10 µM (Plate assay % inhibition): 32%

SMILES: CC(=O)NS(=O)(=O)O[C@H]1CCC2C3CCc4cc(O)ccc4C3CC[C@@]21C (stereo partly drawn) [BLE99058, 3-Hydroxyestra-1,3,5(10)-trien-17β-O-(N-acetyl)sulfamate]
- melting point: 130 to 134 °C (dec.)
- inhibition at 0.01 µM ([1]; 10 nM, -ve % means stimulation): 0.9%
- inhibition at 1 µM ([1]; 1 μM, -ve % means stimulation): 7.8%

SMILES: C[C@]12CCC3c4ccc(O)cc4CCC3C1CC[C@@H]2OS(=O)(=O)N(Cc1ccccc1)Cc1ccccc1 (stereo partly drawn) [BLE99060, 3-Hydroxyestra-1,3,5(10)-trien-17β-O—(N,N-dibenzyl)sulfamate]
- melting point: 60 to 63 °C
- inhibition at 0.01 µM ([1]; 10 nM, -ve % means stimulation): -3.2%
- inhibition at 1 µM ([1]; 1 μM, -ve % means stimulation): 1.36%

SMILES: C[C@]12CCC3c4ccc(OS(N)(=O)=O)cc4CCC3C1CC[C@@H]2OS(=O)(=O)N(Cc1ccccc1)Cc1ccccc1 (stereo partly drawn) [BLE99063, 3-O-Sulfamoyl-estra-1,3,5(10)-trien-17β-O—(N,N-dibenzyl)sulfamate]
- melting point: 60 to 64 °C and 58 to 62 °C
- inhibition at 0.01 µM ([1]; 10 nM, -ve % means stimulation): -1.9%
- inhibition at 1 µM ([1]; 1 μM, -ve % means stimulation): 38.2%

SMILES: CC(=O)NS(=O)(=O)O[C@H]1CCC2C3CCc4cc(OS(N)(=O)=O)ccc4C3CC[C@@]21C (stereo partly drawn) [BLE99065, 3-O-Sulfamoyl-estra-1,3,5(10)-trien-17β-O-(N-acetyl)sulfamate]
- melting point: 76 to 80 °C (dec.)
- inhibition at 0.01 µM ([1]; 10 nM, -ve % means stimulation): 9.8%
- inhibition at 1 µM ([1]; 1 μM, -ve % means stimulation): 91%
- inhibition at 0.1 µM (Plate assay % inhibition; 0.1 μM): 7%
- inhibition at 1 µM (Plate assay % inhibition; 1 μM): 5%
- inhibition at 10 µM (Plate assay % inhibition): 23%

SMILES: C[C@]12CCC3c4ccc(O)cc4CCC3C1CC[C@H]2OS(=O)(=O)N(Cc1ccccc1)Cc1ccccc1 (stereo partly drawn) [BLE99066, 3-Hydroxyestra-1,3,5(10)-trien-17α-O—(N,N-dibenzyl)sulfamate]
- melting point: 57 to 60 °C
- inhibition at 0.01 µM ([1]; 10 nM, -ve % means stimulation): 1.4%
- inhibition at 1 µM ([1]; 1 μM, -ve % means stimulation): 4.5%
- inhibition at 0.1 µM (Plate assay % inhibition; 0.1 μM): 11%
- inhibition at 1 µM (Plate assay % inhibition; 1 μM): 5%
- inhibition at 10 µM (Plate assay % inhibition): 27%

SMILES: CN(C)S(=O)(=O)O[C@H]1CCC2C3CCc4cc(O)ccc4C3CC[C@@]21C (stereo partly drawn) [BLE99067, 3-Hydroxyestra-1,3,5(10)-trien-17β-O—(N,N-dimethyl)sulfamate]
- melting point: 170 to 173 °C
- inhibition at 0.01 µM ([1]; 10 nM, -ve % means stimulation): -0.1%
- inhibition at 1 µM ([1]; 1 μM, -ve % means stimulation): 8.7%
- inhibition at 0.1 µM (Plate assay % inhibition; 0.1 μM): -5%
- inhibition at 1 µM (Plate assay % inhibition; 1 μM): -1%
- inhibition at 10 µM (Plate assay % inhibition): 50%

SMILES: C[C@]12CCC3c4ccc(OS(N)(=O)=O)cc4CCC3C1CC[C@H]2OS(=O)(=O)N(Cc1ccccc1)Cc1ccccc1 (stereo partly drawn) [BLE99068, 3-O-Sulfamoyl-estra-1,3,5(10)-trien-17α-O—(N,N-dibenzyl)sulfamate]
- inhibition at 0.01 µM ([1]; 10 nM, -ve % means stimulation): 4.9%
- inhibition at 1 µM ([1]; 1 μM, -ve % means stimulation): 58.2%
- inhibition at 0.1 µM (Plate assay % inhibition; 0.1 μM): -18%
- inhibition at 1 µM (Plate assay % inhibition; 1 μM): -1%
- inhibition at 10 µM (Plate assay % inhibition): 19%

SMILES: CN(C)S(=O)(=O)O[C@H]1CC[C@H]2[C@@H]3CCc4cc(OS(N)(=O)=O)ccc4[C@H]3CC[C@]12C [BLE99069, 3-O-Sulfamoyl-estra-1,3,5(10)-trien-17β-O—(N,N-dimethyl)sulfamate]
- Placental Microcsomes % inhibition ([1]; 10 nM, -ve % means stimulation): 30.3^1%
- Placental Microcsomes % inhibition ([1]; 1 μM, -ve % means stimulation): 96.3^1%
- Plate assay % inhibition (Plate assay % inhibition; 0.1 μM): 3%
- Plate assay % inhibition (Plate assay % inhibition; 1 μM): 10%

SMILES: CCCCCN(CCCCC)S(=O)(=O)O[C@H]1CCC2C3CCc4cc(O)ccc4C3CC[C@@]21C (stereo partly drawn) [BLE99073, 3-Hydroxyestra-1,3,5(10)-trien-17β-O—(N,N-dipentyl)sulfamate]
- melting point: 93 to 96 °C
- inhibition at 0.01 µM [1]: 1.2%
- inhibition at 1 µM [1]: -11.8%

SMILES: CCCCCN(CCCCC)S(=O)(=O)O[C@H]1CCC2C3CCc4cc(OS(N)(=O)=O)ccc4C3CC[C@@]21C (stereo partly drawn) [BLE99074, 3-O-Sulfamoyl-estra-1,3,5(10)-trien-17β-O—(N,N-dipentyl)sulfamate]
- melting point: 105 to 107 °C
- inhibition at 1 µM ([1]; 1 μM, -ve % means stimulation): 23.7%

SMILES: CCc1cc2c(cc1O)CC[C@@H]1[C@@H]2CC[C@]2(C)[C@@H](O)CC[C@@H]12 [Compound 2-EtE2]
- Colchicine Displacement Assay (%) (tubulin): 6%

SMILES: COc1cc2c(cc1O)CC[C@@H]1[C@@H]2CC[C@]2(C)[C@@H](O)CC[C@@H]12 [Compound 2-MeOE2, 2-methoxyoestradiol]
- Colchicine Displacement Assay (%) (tubulin): 41%

SMILES: O=C1c2ccccc2C(=O)c2c1oc1cc(O)ccc21 [Compound 12, 3-Hydroxybenzo[b]naphtho[2,3-d]furan-6,11-dione]
- inhibition at 10 µM ([2]; MCF7, 10 μM): 3%
- melting point: > 310 °C
- inhibition at 0.1 µM ([3]; Homo sapiens, MCF7, 0.1 μM, read-out: percentage growth inhibition of MCF-7 breast cancer cells): 12%
- inhibition at 1 µM ([3]; Homo sapiens, MCF7, 1 μM, read-out: percentage growth inhibition of MCF-7 breast cancer cells): 20%
- inhibition at 10 µM ([3]; Homo sapiens, MCF7, 10 μM, read-out: percentage growth inhibition of MCF-7 breast cancer cells): 56%

SMILES: NS(=O)(=O)Oc1ccc2c3c(oc2c1)C(=O)c1ccccc1C3=O [Compound 13, Benzo[b]naphtho[2,3-d]furan-6,11-dione 3-O-sulphamate]
- % Inhibition of E1-STS activity in MCF-7 cells ([2]; 0.1 μM): 46.6 ± 4.5%
- % Inhibition of E1-STS activity in MCF-7 cells ([2]; 1 μM): 93.9 ± 0.8%
- % Inhibition of E1-STS activity in MCF-7 cells ([2]; 10 μM): 99% and 98.6 ± 0.3%
- effect on MCF-7 cells (toxicity) [3]: kills the MCF-7 cells
- percentage growth inhibition of MCF-7 breast cancer cells ([3]; 0.1 μM): inactive
- percentage growth inhibition of MCF-7 breast cancer cells ([3]; 1 μM): 41%
- percentage growth inhibition of MCF-7 breast cancer cells ([3]; 10 μM): 44%

SMILES: NS(=O)(=O)Oc1ccc(C(O)(c2ccc(OS(N)(=O)=O)cc2)C2CCCCC2)cc1 [Compound 25, 1-Cyclohexyl-1,1-di-(4-sulphamoyloxyphenyl)methanol]
- inhibition at 0.1 µM ([2]; MCF7, 0.1 μM): < 10%
- inhibition at 1 µM ([2]; MCF7, 1 μM): 27.4 ± 0.8%
- inhibition at 10 µM ([2]; MCF7, 10 μM): 75.1 ± 2.8%
- melting point: 213 to 215 °C (dec.)
